Patent US9718762B2, “Insecticidal compounds” (Syngenta Participations AG, priority 2013, dated 2017)

Tests used:
Format in all cases: in vivo
[1] = system: Spodoptera littoralis; test: Spodoptera littoralis (Egyptian cotton leafworm) cotton leaf disc spray test; conditions: foliar, 72 h, 200 ppm spray on cotton leaf discs, L1 larvae, 3 days after treatment, mortality, feeding behavior, growth regulation
Excerpt: Spodoptera littoralis (Egyptian Cotton Leafworm): Cotton leaf discs were placed on agar in a 24-well microtiter plate and sprayed with test solutions at an application rate of 200 ppm. After drying, the leaf discs were infested with 5 L1 larvae. The samples were checked for mortality, feeding behavior, and growth regulation 3 days after treatment (DAT).

[2] = system: Heliothis virescens; test: Heliothis virescens (tobacco budworm) egg test on artificial diet; conditions: 96 h, 200 ppm (concentration in well 18 ppm), eggs on artificial diet, 4 days, egg mortality, larval mortality, growth regulation
Description: Heliothis virescens (Tobacco Budworm): Eggs (0-24 h old) were placed in 24-well microtiter plate on artificial diet and treated with test solutions at an application rate of 200 ppm (concentration in well 18 ppm) by pipetting. After an incubation period of 4 days, samples were checked for egg mortality, larval mortality, and growth regulation.

[3] = system: Plutella xylostella; test: Plutella xylostella (diamond back moth) artificial diet test; conditions: 144 h, 200 ppm (concentration in well 18 ppm), L2 larvae, 6 days, larval mortality, growth regulation
Description: Plutella xylostella (Diamond Back Moth): 24-well microtiter plate (MTP) with artificial diet was treated with test solutions at an application rate of 200 ppm (concentration in well 18 ppm) by pipetting. After drying, the MTP's were infested with L2 larvae (7-12 per well). After an incubation period of 6 days, samples were checked for larval mortality and growth regulation.

[4] = system: Diabrotica balteata; test: Diabrotica balteata (corn root worm) artificial diet test; conditions: 120 h, 200 ppm (concentration in well 18 ppm), L2 larvae, 5 days, larval mortality, growth regulation
Description: Diabrotica balteata (Corn Root Worm): A 24-well microtiter plate (MTP) with artificial diet was treated with test solutions at an application rate of 200 ppm (concentration in well 18 ppm) by pipetting. After drying, the MTP's were infested with L2 larvae (6-10 per well). After an incubation period of 5 days, samples were checked for larval mortality and growth regulation.

[5] = system: Thrips tabaci; test: Thrips tabaci (onion thrips) sunflower leaf disc spray test; conditions: foliar, 168 h, 200 ppm spray on sunflower leaf discs, population of mixed ages, 7 days, mortality
Description: Thrips tabaci (Onion Thrips): Sunflower leaf discs were placed on agar in a 24-well microtiter plate and sprayed with test solutions at an application rate of 200 ppm. After drying, the leaf discs were infested with an […] population of mixed ages. After an incubation period of 7 days, samples were checked for mortality.

[6] = system: Tetranychus urticae; test: Tetranychus urticae (two-spotted spider mite) bean leaf disc spray test; conditions: foliar, 192 h, 200 ppm spray on bean leaf discs, mite populations of mixed ages, 8 days, egg, larval and adult mortality
Excerpt: Tetranychus urticae (Two-Spotted Spider Mite): Bean leaf discs on agar in 24-well microtiter plates were sprayed with test solutions at an application rate of 200 ppm. After drying, the leaf discs are infested with mite populations of mixed ages. 8 days later, discs are checked for egg mortality, larval mortality, and adult mortality.

[7] = system: Myzus persicae; test: Myzus persicae (green peach aphid) sunflower leaf disc spray test; conditions: foliar, 144 h, 200 ppm spray on sunflower leaf discs, aphid population of mixed ages, 6 DAT, mortality
Description: Myzus persicae (Green Peach Aphid): Sunflower leaf discs were placed on agar in a 24-well microtiter plate and sprayed with test solutions at an application rate of 200 ppm. After drying, the leaf discs were infested with an […] population of mixed ages. After an incubation period of 6 DAT, samples were checked for mortality.

Measured: pest or weed control at 200 ppm

CCN(C(=O)c1ccc(C#N)cc1)c1cccc(C(=O)Nc2c(Cl)cc(C(F)(C(F)(F)F)C(F)(F)F)cc2Br)c1OC [Compound 1, N-[2-bromo-6-chloro-4-[1,1,1,2,3,3,3-heptafluoro-prop-2-yl]phenyl]-3-[(4-cyanobenzoyl)-ethyl-amino]-2-methoxy-benzamide]
≥ 80%: all assays above

CCN(C(=O)c1ccc(C#N)cc1)c1cccc(C(=O)Nc2c(Cl)cc(C(F)(C(F)(F)F)C(F)(F)F)cc2Cl)c1OC [Compound 2]
≥ 80%: all assays above

CCc1cc(C(F)(C(F)(F)F)C(F)(F)F)cc(C)c1NC(=O)c1cccc(N(CC)C(=O)c2ccc(C#N)cc2)c1OC [Compound 3]
≥ 80%: all assays above

COc1c(C(=O)Nc2c(Cl)cc(C(F)(C(F)(F)F)C(F)(F)F)cc2Br)cccc1N(C)C(=O)c1ccc(C#N)cc1 [Compound 4]
≥ 80%: all assays above

CCN(C(=O)c1ccc(C#N)cc1)c1cccc(C(=O)Nc2c(Br)cc(C(F)(C(F)(F)F)C(F)(F)F)cc2Br)c1OC [Compound 5]
≥ 80%: all assays above

COc1c(C(=O)Nc2c(Br)cc(C(F)(C(F)(F)F)C(F)(F)F)cc2Br)cccc1N(C)C(=O)c1ccc(C#N)cc1 [Compound 6]
≥ 80%: all assays above

COc1c(C(=O)Nc2c(Cl)cc(C(F)(C(F)(F)F)C(F)(F)F)cc2Cl)cccc1N(C)C(=O)c1ccc(C#N)cc1 [Compound 7]
≥ 80%: all assays above

CCc1cc(C(F)(C(F)(F)F)C(F)(F)F)cc(Br)c1NC(=O)c1cccc(N(CC)C(=O)c2ccc(C#N)cc2)c1 [Compound 8]
not listed: [1]
≥ 80%: all other assays above

CCc1cc(C(F)(C(F)(F)F)C(F)(F)F)cc(CC)c1NC(=O)c1cccc(N(CC)C(=O)c2ccc(C#N)cc2)c1OC [Compound 9]
≥ 80%: all assays above

CCc1cc(C(F)(C(F)(F)F)C(F)(F)F)cc(Br)c1NC(=O)c1cccc(N(C)C(=O)c2ccc(C#N)cc2)c1OC [Compound 10]
≥ 80%: all assays above

CCc1cc(C(F)(C(F)(F)F)C(F)(F)F)cc(Cl)c1NC(=O)c1cccc(N(C)C(=O)c2ccc(C#N)cc2)c1OC [Compound 11]
≥ 80%: all assays above

CCc1cc(C(F)(C(F)(F)F)C(F)(F)F)cc(Cl)c1NC(=O)c1cccc(N(CC)C(=O)c2ccc(C#N)cc2)c1OC [Compound 12]
≥ 80%: all assays above
